Target: T1, AfCrh5 (Aspergillus fumigatus, UniProt Q8J0P4)
T1 construct: gene crh5; GST cleaved off by PreScission, N-terminal His6 kept; E. coli BL21(DE3) pLysS
T1 sequence (Q8J0P4 22-275): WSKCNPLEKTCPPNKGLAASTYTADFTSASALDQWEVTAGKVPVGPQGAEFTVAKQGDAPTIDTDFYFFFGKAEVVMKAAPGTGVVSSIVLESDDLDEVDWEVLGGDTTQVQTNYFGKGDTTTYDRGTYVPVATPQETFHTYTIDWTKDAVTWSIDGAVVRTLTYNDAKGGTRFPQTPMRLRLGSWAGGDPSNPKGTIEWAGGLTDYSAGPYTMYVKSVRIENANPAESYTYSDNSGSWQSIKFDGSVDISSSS
Assay: fluorescent transglycosylation filter-paper assay
Format: biochemical
Conditions: acceptor; donor carboxymethyl-chitin; 50 mM citrate pH 4.9, 37 °C; labelled compound
Excerpt: fluorescent transglycosylation filter-paper assay on AfCrh5

Substance | Km [µM]
SR-labelled chitopentaose [CH5-SR] | 3.5 ± 0.4
SR-labelled laminaripentaose [L5-SR] | 12 ± 3

Source: publication PMC6458159, “Mechanisms of redundancy and specificity of the Aspergillus fumigatus Crh transglycosylases” (Nature Communications, 2019)
